Assays:
[1] = tested on: UGT enzymes (Uridine diphosphate glucuronosyltransferase); test: Main metabolic pathway of compound (I); assay type: in vitro ADME; settings: estimated
[2] = tested on: CDAA diet-loaded rats; test: Hepatic fibrosis development in NASH animal model (CDAA diet-loaded rat), repeated oral administration for 10 weeks; assay type: in vivo, F344 rats; settings: for Sirius red positive areas (%) (mean ± S.E.): primary endpoint; for Fibrosis development score (mean ± S.E.): score 0-4 (Table 3), secondary endpoint
Excerpt: Some heads of F344 rats (5-week-old, body weight 67.5 to 87.5 g, purchased from Japan SLC, Inc.) were housed (for quarantine inspection and acclimatization) for 15 days while receiving a normal diet, and were then used as a test animal. The rats were divided into six treatment groups by stratified random allocation using body weight as a randomization factor (each 10 heads of the rats per group). The test compounds (that is, the compound (I) or eplerenone) were suspended into 0.5% aqueous carmellose sodium solution containing a vehicle (0.1% polyoxyethylene hydrogenated castor oil (HCO-60, manufactured by Nikko Chemicals Co., Ltd.)), and the resultant suspensions were used (10 mL/kg). The rats were loaded with a CDAA diet (choline deficient L-amino acid defined diet), and simultaneously with the loading, were received with a repeated oral administration of the above-mentioned compound (I) (1 mg/kg, 3 mg/kg, and 10 mg/kg) at once per day for 10 weeks (hereinafter, which is referred to as “Compound (I)-treated group”). Also, the rats that were loaded with the CDAA diet and were received with the administration of the above-mentioned vehicle (10 mL/kg) were assigned to “disease control group”, and also the rats that were loaded with the CSAA diet and were received with the administration of the above-mentioned vehicle (10 mL/kg) were assigned to “normal control group”. While, “positive control group” rats were loaded with the CDAA diet and were received with a repeated oral administration of eplerenone (100 mg/kg) at once per day for 10 weeks.
After the administration, the test tissues were sampled from lamella of the extracted liver, and the pathological specimens were constructed. Each effect of the respective test compound on NASH was examined using the Sirius red positive areas of the specimens as a primary endpoint. Also the fibrosis development scores of hepatic pathological specimens in each group were examined as the secondary endpoint.

[3] = background statement; cited from earlier work
[4] = molecular target: CYP3A4 (cytochrome P450 3A4) (Homo sapiens, UniProt P08684); settings: Non-Patent documents 12 and 13; cited from earlier work
[5] = CDAA diet-loaded rats, 1 mg/kg oral once per day for 10 weeks
[6] = CDAA diet-loaded rats, 3 mg/kg oral once per day for 10 weeks
[7] = CDAA diet-loaded rats, 10 mg/kg oral once per day for 10 weeks
[8] = CDAA diet-loaded rats, 100 mg/kg oral once per day for 10 weeks

Chain of CYP3A4 (cytochrome P450 3A4) (P08684 whole entry): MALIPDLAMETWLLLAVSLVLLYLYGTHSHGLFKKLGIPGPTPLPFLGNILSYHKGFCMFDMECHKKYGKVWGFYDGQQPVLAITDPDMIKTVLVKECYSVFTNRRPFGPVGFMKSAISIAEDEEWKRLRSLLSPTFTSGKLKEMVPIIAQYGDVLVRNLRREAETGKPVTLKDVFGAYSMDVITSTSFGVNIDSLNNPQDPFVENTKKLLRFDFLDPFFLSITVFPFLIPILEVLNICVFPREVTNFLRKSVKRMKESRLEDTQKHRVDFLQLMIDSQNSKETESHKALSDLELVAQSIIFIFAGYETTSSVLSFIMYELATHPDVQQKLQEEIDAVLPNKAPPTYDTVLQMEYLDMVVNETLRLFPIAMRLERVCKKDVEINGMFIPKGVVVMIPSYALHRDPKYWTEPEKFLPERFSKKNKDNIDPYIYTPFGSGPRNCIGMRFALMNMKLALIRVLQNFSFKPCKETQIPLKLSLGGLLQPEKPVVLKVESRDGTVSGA

Which Main metabolic pathway [1] does the source give for `CC1(C)Oc2cc(NS(C)(=O)=O)ccc2N(c2ccc(F)cc2)C1=O` [Compound (I)] here?
The Main metabolic pathway was “glucuronide conjugation by UGT enzymes”.

And the “Sirius red positive areas as compared with disease control group” value ([2]; 1 mg/kg, 3 mg/kg and 10 mg/kg-treated groups, all)?
Its value is “significantly lower”.

And the “Fibrosis development scores as compared with disease control group” value ([2]; 3 mg/kg-treated group and 10 mg/kg-treated group)?
Its value is “significantly lower value”.

And the “Sirius red positive areas (%) (mean ± S.E.)” value (“Sirius red positive areas (%)” below) [2, 5]?
Its value is 4.0 ± 0.3 %.

What about the “Fibrosis development score (mean ± S.E.)” value [2, 5] of the same compound?
Its value is 3.0 ± 0.0.

And the “Sirius red positive areas (%)” value [2, 6]?
The value was 3.6 ± 0.4 %.

And the “Fibrosis development score (mean ± S.E.)” value [2, 6]?
The value was 2.7 ± 0.2.

What about the “Sirius red positive areas (%)” value [2, 7] of the same compound?
Its value is 1.8 ± 0.2 %.

What about the “Fibrosis development score (mean ± S.E.)” value [2, 7] of the same compound?
The value was 2.2 ± 0.1.

And the “Progression of fibrosis development of liver” value ([2]; CDAA diet-loaded rats, overall conclusion)?
The value was “significantly inhibit”.

And the “Sirius red positive area value at the lowest dose in comparison with eplerenone at a higher dose” value ([2]; compound (I) lowest dose (1 mg/kg) vs eplerenone 100 mg/kg)?
The value was “significantly lower area value”.

For `COC(=O)[C@@H]1CC2=CC(=O)CC[C@]2(C)[C@@]23O[C@@H]2C[C@@]2(C)[C@@H](CC[C@@]24CCC(=O)O4)[C@H]13` [Eplerenone, eplerenone, reference compound], which “Fibrosis development scores as compared with disease control group” value ([2]; 100 mg/kg, positive control group) is on record?
The value was “not significantly different”.

And the “Sirius red positive areas (%)” value [2, 8]?
Its value is 2.8 ± 0.2 %.

What about the “Fibrosis development score (mean ± S.E.)” value [2, 8] of the same compound?
Its value is 3.0 ± 0.0.

What about the Half-life in blood [3] of the same compound?
Its Half-life in blood is “short half-life”.

And the Metabolizing enzyme [4]?
Its Metabolizing enzyme is “metabolized mainly by CYP3A4”.
